Assay results: US5223485A, “Anaphylatoxin-receptor ligands” (Abbott Laboratories, priority 1991, dated 1993)
Numbered stars: 1 amine (or outer) side, 2 acyl side, 3 side chain; on linkers, the order of the positions; unused ones are H or OH. Square brackets hold non-standard residues; d marks the D form. Peptide text beside a SMILES is read from it. Phe(4-NO2) = N[C@@H](Cc1ccc([N+](=O)[O-])cc1)C(=O)O; X1 = O=C([C@@H](N[*:1])C(O)c1ccccc1)[*:2]; hCha = N[C@@H](CCC1CCCCC1)C(=O)O; Cha = N[C@@H](CC1CCCCC1)C(=O)O

Biological target: T1, C5a Receptor (Homo sapiens, UniProt P21730)
T1 construct: 2.5-25 μg/mL of purified PMNL membrane fragments; from tissue; host or cells: polymorphonuclear leukocyte (PMNL) membrane fragments
T1 sequence (P21730 1-350): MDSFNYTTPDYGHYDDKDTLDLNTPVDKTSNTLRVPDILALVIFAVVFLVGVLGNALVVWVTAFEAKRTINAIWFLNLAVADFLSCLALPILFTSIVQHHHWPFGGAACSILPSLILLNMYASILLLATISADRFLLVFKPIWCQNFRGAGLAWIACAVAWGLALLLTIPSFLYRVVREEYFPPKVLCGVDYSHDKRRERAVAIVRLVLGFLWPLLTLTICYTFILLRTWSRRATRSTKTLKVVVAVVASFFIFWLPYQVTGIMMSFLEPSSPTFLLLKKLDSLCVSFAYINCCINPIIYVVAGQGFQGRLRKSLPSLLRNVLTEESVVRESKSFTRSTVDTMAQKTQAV
Test: Anaphylatoxin receptor binding Ki determination: inhibition of 125I-C5a binding to PMNL membrane fragments
Conditions: 0.03-1 nM 125I-C5a, 2.5-25 μg/mL purified PMNL membrane fragments, filtration; read-out: In vitro C5a Receptor Binding Potency Ki
Method: Specific inhibition of C5a binding activity of representative compounds of the present invention was measured using 0.03-1 nM ^125 I-C5a with 2.5-25 μg/mL of purified PMNL membrane fragments (Borregaard, N.; Heiple, J. M.; Simons, E. R.; and Clark, R. A. J. Cell. Biol. 1983, 97, 52-61.). Free and membrane-bound ligand were separated by filtration.

Row | SMILES | Ki [nM]
1 | CC(C)C[C@H](NC(=O)[C@H](CC1CCCCC1)NC(=O)[C@H](CC1CCCCC1)NC(=O)[C@H](C)NC(=O)[C@H](CCCCN)NC(=O)[C@@H](N)Cc1ccccc1)C(=O)N[C@H](C)C(=O)N[C@@H](CCCNC(=N)N)C(=O)O [Example 2, H-Phenylalanyl-Lysyl-Alanyl-{(2S)-2-Amino-3-cyclohexylpropanoyl}-{(2S)-2-Amino-3-cyclohexylpropanoyl}-Leucyl-DAlanyl-Arginyl-OH] (H-FKA[Cha][Cha]L[dA]R-OH) | 98
2 | CC(=O)N[C@@H](Cc1c[nH]cn1)C(=O)N[C@@H](CCCCN)C(=O)N[C@@H](CC(=O)O)C(=O)N[C@@H](CC1CCCCC1)C(=O)N[C@@H](Cc1c[nH]cn1)C(=O)N[C@@H](CC(C)C)C(=O)N[C@H](C)C(=O)N[C@@H](CCCNC(=N)N)C(=O)O [Example 23, Ac-Histidyl-Lysyl-Aspartyl-{(2S)-2-Amino-3-cyclohexylpropanoyl}-Histidyl-Leucyl-DAlanyl-Arginyl-OH] (Ac-HKD[Cha]HL[dA]R-OH) | 2400
3 | CC(=O)N[C@@H](Cc1ccc([N+](=O)[O-])cc1)C(=O)N[C@@H](CCCCN)C(=O)N[C@@H](CC(=O)O)C(=O)N[C@@H](CC1CCCCC1)C(=O)N[C@@H](CC1CCCCC1)C(=O)N[C@@H](CC(C)C)C(=O)N[C@H](C)C(=O)N[C@@H](CCCNC(=N)N)C(=O)O [Example 31, Ac-(4-NO2)Phenylalanyl-Lysyl-Aspartyl-{(2S)-2-Amino-3-cyclohexylpropanoyl}-{(2S)-2-Amino-3-cyclohexylpropanoyl}-Leucyl-DAlanyl-Arginyl-OH] (Ac-[Phe(4-NO2)]KD[Cha][Cha]L[dA]R-OH) | 90
4 | CC(C)C[C@H](NC(=O)[C@H](Cc1ccccc1)NC(=O)[C@H](Cc1ccccc1)NC(=O)[C@H](CC(N)=O)NC(=O)[C@H](CCCCN)NC(=O)[C@@H](N)Cc1ccccc1)C(=O)N[C@H](C)C(=O)N[C@@H](CCCNC(=N)N)C(=O)O [Example 91, H-Phenylalanyl-Lysyl-Asparaginyl-Phenylalanyl-Phenylalanyl-Leucyl-DAlanyl-Arginyl-OH] (H-FKNFFL[dA]R-OH) | 485
5 | CC(C)C[C@H](NC(=O)[C@H](C)NC(=O)[C@H](CCC1CCCCC1)NC(=O)[C@H](C)NC(=O)[C@H](CCCCN)NC(=O)[C@@H](N)Cc1ccccc1)C(=O)N[C@H](C)C(=O)N[C@@H](CCCNC(=N)N)C(=O)O [Example 106, H-Phenylalanyl-Lysyl-Alanyl-{(2S)-2-Amino-4-cyclohexylbutanoyl}-Alanyl-Leucyl-DAlanyl-Arginyl-OH] (H-FKA[hCha]AL[dA]R-OH) | 42
6 | CC[C@H](C)[C@H](N)C(=O)N[C@@H](CO)C(=O)N[C@@H](Cc1ccccc1)C(=O)N[C@@H](CCCCN)C(=O)N[C@@H](CC(=O)O)C(=O)N[C@@H](CC1CCCCC1)C(=O)N[C@@H](CC1CCCCC1)C(=O)N[C@@H](CC(C)C)C(=O)N[C@H](C)C(=O)N[C@@H](CCCNC(=N)N)C(=O)O [Example 111, H-Isoleucyl-Seryl-Phenylalanyl-Lysyl-Aspartyl-{(2S)-2-Amino-3-cyclohexylpropanoyl}-{(2S)-2-Amino-3-cyclohexylpropanoyl}-Leucyl-DAlanyl-Arginyl-OH] (H-ISFKD[Cha][Cha]L[dA]R-OH) | 650
7 | CC(C)C[C@H](NC(=O)[C@H](C)NC(=O)[C@@H](NC(=O)[C@H](C)NC(=O)[C@H](CCCCN)NC(=O)[C@@H](N)Cc1ccccc1)C(O)c1ccccc1)C(=O)N[C@H](C)C(=O)N[C@@H](CCCNC(=N)N)C(=O)O (some centres unmarked) [Example 117, H-Phenylalanyl-Lysyl-Alanyl-Phenylseryl-Alanyl-Leucyl-DAlanyl-Arginyl-OH] (H-FKA[X1]AL[dA]R-OH) | 550
8 | C[C@H](NC(=O)[C@H](CCCCN)NC(=O)[C@@H](N)Cc1ccccc1)C(=O)N[C@@H](CC1CCCCC1)C(=O)N[C@@H](CC1CCCCC1)C(=O)N[C@H](C(=O)N[C@H](C)C(=O)N[C@@H](CCCNC(=N)N)C(=O)O)[C@@H](C)O [Example 131, H-Phenylalanyl-Lysyl-Alanyl-{(2S)-2-Amino-3-cyclohexylpropanoyl}-{(2S)-2-Amino-3-cyclohexylpropanoyl}-Threonyl-DAlanyl-Arginyl-OH] (H-FKA[Cha][Cha]T[dA]R-OH) | 170
9 | CCCC(C(=O)N[C@H](C)C(=O)N[C@@H](CCCNC(=N)N)C(=O)O)N1CCCC[C@H](NC(=O)[C@H](CC2CCCCC2)NC(=O)[C@H](Cc2c[nH]cn2)NC(=O)[C@H](CCCCN)NC(=O)[C@@H](N)Cc2ccccc2)C1=O (stereo partly drawn) [Example 150, H-Phenylalanyl-Lysyl-Histidyl-{(2S)-2-Amino-3-cyclohexylpropanoyl}-{(2'R/S,3S)-3-Amino-2-oxo-1-azepine-2'-pentanoyl}-DAlanyl-Arginyl-OH] | 110
10 | CC(C)C[C@H](NC(=O)CNC(=O)[C@H](CC1CCCCC1)NC(=O)[C@H](C)NC(=O)[C@H](CCCCN)NC(=O)[C@@H](N)Cc1ccccc1)C(=O)N[C@H](C)C(=O)N[C@@H](CCCNC(=N)N)C(=O)O [Example 165, H-Phenylalanyl-Lysyl-Alanyl-{(2S)-2-Amino-3-cyclohexylpropanoyl}-Glycyl-Leucyl-DAlanyl-Arginyl-OH] (H-FKA[Cha]GL[dA]R-OH) | 42
11 | CC(C)C[C@H](NC(=O)[C@H](CC1CCCCC1)NC(=O)[C@@H](NC(=O)[C@H](C)NC(=O)[C@H](CCCCN)NC(=O)[C@@H](N)Cc1ccccc1)[C@@H](C)O)C(=O)N[C@H](C)C(=O)N[C@@H](CCCNC(=N)N)C(=O)O [Example 182, H-Phenylalanyl-Lysysl-Alanyl-Threonyl-{(2S)-2-Amino-3-cyclohexylpropanoyl}-Leucyl-DAlanyl-Arginyl-OH] (H-FKAT[Cha]L[dA]R-OH) | 300
12 | CC(C)C[C@H](NC(=O)[C@H](CC1CCCCC1)NC(=O)[C@H](CC1CCCCC1)NC(=O)[C@H](C)NC(=O)[C@H](CCCCN)NC(=O)[C@@H](N)Cc1ccccc1)C(=O)N[C@@H](C)C(=O)N[C@@H](CCCNC(=N)N)C(=O)O [Example 188, H-Phenylalanyl-Lysyl-Alanyl-{(2S)-2-Amino-3-cyclohexylpropanoyl}-{(2S)-2-Amino-3-cyclohexylpropanoyl}-Leucyl-Alanyl-Arginyl-OH] (H-FKA[Cha][Cha]LAR-OH) | 210
13 | C[C@H](NC(=O)[C@H](CCCCN)NC(=O)[C@@H](N)Cc1ccccc1)C(=O)N[C@@H](CC1CCCCC1)C(=O)N[C@@H](CC1CCCCC1)C(=O)N[C@H](C)C(=O)N[C@H](C)C(=O)N[C@@H](CCCNC(=N)N)C(=O)O [Example 202, H-Phenylalanyl-Lysyl-Alanyl-{(2S)-2-Amino-3-cyclohexylpropanoyl}-{(2S)-2-Amino-3-cyclohexylpropanoyl}-DAlanyl-DAlanyl-Arginyl-OH] (H-FKA[Cha][Cha][dA][dA]R-OH) | 870
14 | CC(C)C[C@H](NC(=O)[C@H](CC1CCCCC1)NC(=O)[C@H](CC1CCCCC1)NC(=O)[C@H](C)NC(=O)[C@H](CCCCN)NC(=O)[C@@H](N)Cc1ccccc1)C(=O)N[C@H](C)C(=O)NCC(=O)N[C@@H](CCCNC(=N)N)C(=O)O [Example 213, H-Phenylalanyl-Lysyl-Alanyl-{(2S)-2-Amino-3-cyclohexylpropanoyl}-{(2S)-2-Amino-3-cyclohexylpropanoyl)-Leucyl-DAlanyl-Glycyl-Arginyl-OH] (H-FKA[Cha][Cha]L[dA]GR-OH) | 330
